The source of these data is US20250319115A1, “Compositions and Methods for Modulating Cytokines” (Flagship Pioneering Innovations VII, LLC, priority 2022, published 2025).

For one test, the system named is IL-4 signaling pathway. Kind of test: HEK-Blue IL-4 SEAP reporter assay. Type of test: cell-based. How it is done:
(§1) The effects of putative inhibitors on pro-inflammatory cytokine pathways are assessed using HEK-Blue cells engineered for the detection of bioactive cytokines via activation of JAK/STAT pathways and subsequent expression of the SEAP reporter gene. Cells are treated with their relevant cytokines+/−peptides or control antibodies, and 20 hours after treatment activation of the relevant cytokine receptor is determined via SEAP expression through mixing cell supernatants with a Quanti-Blue colorimetric reagent and measuring optical density at 600 nm.
Reporter lines HEK-Blue TL-4/TL-15/IFN-alpha were cultured in DMEM with GlutaMAX and 10% HI FBS (Gibco). Cells were seeded into black 96-well optical clear flat-bottomed PhenoPlates at densities of 25000 cells/well and 100 uL/well and allowed to rest overnight in a 37 C incubator with 5% CO2. After 24 hours, cells were treated with 10 μL of their relevant cytokines (StemCell Technologies) at the previously determined EC75 for activation (1.164 ng/mL for HEK-Blue IL-4, 2.26 ng/mL for HEK-Blue IL-15, and 0.456 ng/mL for HEK-Blue IFN-alpha), with or without 10 μL of peptides (5 uM final concentration) or control antibodies (1 ug/well). Cells were kept overnight in a 37 C incubator with 5% C02.
20-22 hours after treatment, 20 μL of the cell supernatants were collected and transferred to 96-well white flat opaque-bottom plates (Costar) and each sample was mixed with 180 μL of Quanti-Blue reagent. Colorimetric reactions were allowed to develop in a 37 C incubator with 5% C02 for a certain duration of time (3 hours for HEK-Blue IL-4, 2 hours for HEK-Blue IL-15, and 1 hour for IFN-alpha). Assay plates were then removed from the incubator and the optical density of each well was measured at 600 nm on a GloMax plate reader. Relative activation of the cytokine signaling pathway in question was determined by ratioing the optical density of each sample to the average optical density for the cytokine-only treated cells from the same plate.

Another test deals with IL-15 signaling pathway. Kind of test: HEK-Blue IL-15 SEAP reporter assay. Type of test: cell-based. How it is done:
as §1
(§2) Reporter lines HEK-Blue TL-4/TL-15/IFN-alpha were cultured in DMEM with GlutaMAX and 10% HI FBS (Gibco). […] After 24 hours, cells were treated with 10 μL of their relevant cytokines (StemCell Technologies) at the previously determined EC75 for activation (1.164 ng/mL for HEK-Blue IL-4, 2.26 ng/mL for HEK-Blue IL-15, and 0.456 ng/mL for HEK-Blue IFN-alpha), with or without 10 μL of peptides (5 uM final concentration) or control antibodies (1 ug/well). […]
(§3) 20-22 hours after treatment, 20 μL of the cell supernatants were collected and transferred to 96-well white flat opaque-bottom plates (Costar) and each sample was mixed with 180 μL of Quanti-Blue reagent. […] Assay plates were then removed from the incubator and the optical density of each well was measured at 600 nm on a GloMax plate reader. […]

Test [1] deals with IFN-alpha signaling pathway. Kind of test: HEK-Blue IFN-alpha SEAP reporter assay. The test is classed as cell-based. How it is done:
as §1, §2, §3
(In general: In a reporter assay the amount or activity of a reporter protein is the signal.)

Test [2] has as its system Interferon Regulatory Factor (IRF) pathway. The test is described as follows: Dual Reporter Assay: NF-kB-SEAP and IRF-Lucia luciferase reporter monocyte (THP1) cells +/- TLR agonists. Type of test: cell-based, human. As for the experimental part:
(§4) To determine the effect of the Target Protein on TLR activity, the Target Protein, irrelevant proteins, and controls were applied+/−established TLR agonists to a commercial reporter cell line which monitors the two main signal transduction pathways that respond to TLR activation. To determine which primary, human, immune cells are most responsive to the Target Proteins, the Target Proteins were applied to Peripheral Blood Mononuclear Cells (PBMCs) and then 24 hours later the PBMCs were subjected to single cell RNA-seq.
Dual Reporter Assay: NF-kB-SEAP and IRF-Lucia luciferase reporter monocyte (THP1) cells (InvivoGen) are cultured in RPMI 1640 media supplemented with HEPES buffer (10 mM), sodium pyruvate (1 mM), glucose (4.5 g/L), fetal bovine serum (10%), penicillin (100 U/mL), streptomycin ([…]), and 2-mercaptoethanol (0.05 mM). THP1 cells are treated with 100 ng/mL LPS (Sigma-Aldrich) for 24 hrs, the target protein (final conc. 10 μM), or left untreated.
After treatment, THP1 cells are cultured for 24 hrs and then assayed for reporter activity. Both reporter proteins are measurable in the cell culture supernatant when using QUANTI-Blue (InvivoGen), a SEAP detection reagent, and QUANTI-Luc (InvivoGen), a luciferase detection reagent. QUANTI-Blue is a colorimetric enzyme assay developed to determine any alkaline phosphatase activity in a biological sample, such as cell culture supernatant. QUANTI-Luc is a lyophilized assay reagent containing all the components required to quantitatively measure the activity of Lucia Luciferase other coelenterazine-utilizing luciferases. Increased reporter activity after treatment with target protein is observed in cells where the target protein is immune stimulating. Additionally, decreased reporter activity after treatment with the target protein is observed in cells where the target protein is immune dampening.
To determine the effect of the Target Protein on TLR activity, the Target Protein, irrelevant proteins and controls were applied+/−established TLR agonists to a commercial reporter cell line which monitors the two main signal transduction pathways that respond to TLR activation. To determine which primary, human, immune cells are most responsive to the Target Proteins, the Target Proteins were applied to Peripheral Blood Mononuclear Cells (PBMCs) and then 24 hours later the PBMCs were subjected to single cell RNA-seq.

Test [3] has as its system Peripheral Blood Mononuclear Cells (PBMCs). The test is described as follows: single cell RNA-seq of PBMCs treated with target protein. Type of test: cell-based, human. To be noted: 10 μM, 24 hours, vs scrambled protein control. As for the experimental part: as §4
scRNA-seq: From example: Shifts in cell populations after treatment with Target Proteins are assessed by single cell RNA-seq (scRNA-seq). Target proteins (e.g., listed in Table 1) are synthesized through Fluorenylmethyloxycarbonyl (Fmoc) protection group chemistry using Solid Phase Peptide Synthesis (SPPS). […]
Post sequencing, reads are aligned to the human reference genome (GENCODE34/GRCH38). Reads are demultiplexed using DNA-barcoded antibodies and run through quality control (g. doublets are removed, singlet cells are selected with less than 15% mitochondria contamination at RNA levels and reads contain higher than 500 genes). […]
scRNA-seq: From example: Shifts in cell populations after treatment with Target Proteins are assessed by single cell RNA-seq (scRNA-seq). […]

The mark [4] stands for this setting: peptide 5 uM, cytokine at EC75, SEAP OD 600 nm.
Where [5] appears, read: THP-1 dual reporter cells, protein 10 μM vs scramble protein, 24 hours.

Consider “SEQ ID NO: 1238_L8V: novel peptide capable of inhibiting pro-inflammatory cytokine pathways (LVVRWAVVVFRSSTAALPRAAEAARRSEKWPKTSALGRRS; listed as Homo sapiens)”, for which the “inhibitor of the IL-4 signaling pathway (grade in words)” value with IL-4 signaling pathway (FIG. 9) was “strong”. Besides, in the test on IL-15 signaling pathway (setting [4]), the “Relative activity (compared to cytokine only controls), Cytokine IL-15” value is reported as −70%.
For the substance “SEQ ID NO: 3915: novel peptide capable of activating the signaling pathway for IFN-alpha (LRRAIWGLLCLMVAEENQEASLRKLAVRRKFWRLGRATQRYSVAW; listed as Homo sapiens)”, the “activator of the IFN-alpha signaling pathway (grade in words)” value in test [1] (FIG. 11) is recorded as “moderate activator”. Moreover, in test [1] (setting [4]), the “Relative activity (compared to cytokine only controls), Cytokine IFN-a” value was “+40%”.
As to “SEQ ID NO: 6091: novel peptide capable of inhibiting pro-inflammatory cytokine pathways (IFLFLPIFSFPQIFLLLFYHLE; listed as Homo sapiens)”, the “Relative activity (compared to cytokine only controls), Cytokine IL-4” value in the test on IL-4 signaling pathway (setting [4]) was −40%. The “inhibitor of the IL-15 signaling pathway (grade in words)” value in the test on IL-15 signaling pathway (FIG. 10) was “strong inhibitor”.
Consider “SEQ ID NO: 6516: novel, secreted peptide that inhibits the innate immune response caused by toll-like receptor agonists (MAAPSNKTELAWSPRLAA; listed as Homo sapiens)”, for which the “relative IRF activity (reporter gene expression)” value in test [2] (THP-1 dual reporter cells, peptide 0, 2.5, 5, 7.5, and 10 μM in the presence of LPS, 24 hours) is listed as “inhibition”. Further, in test [2] (setting [5]), the “IRF response, co-treated with TLR1/2 agonist” value is “inhibited”; the “IRF response, co-treated with TLR2 agonist” value is on record as “no significant effect”; the “IRF response, co-treated with TLR3 agonist” value is “no significant effect”; the “IRF response, co-treated with TLR4 agonist” value is “inhibited”. For the same substance, in test [2] (setting [5]), the “IRF response, co-treated with TLR5 agonist” value was “no significant effect”; the “IRF response, co-treated with TLR6/2 agonist” value is recorded as “inhibited”; the “IRF response, co-treated with TLR7 agonist” value is on record as “no significant effect”; the “IRF response, co-treated with TLR8 agonist” value was “no significant effect”. Also, the “IRF response, co-treated with TLR9 agonist” value in test [2] (setting [5]) is on record as “no significant effect”. Besides, the “IRF signal transduction pathway response from several TLRs” value in test [2] (reporter cell line +/- TLR agonists) is “significantly blocks”. In test [3], the “effect on T-cells, B-cells, and NK-cells (up/downregulated genes, scRNA-seq)” value is listed as “relatively small effects”; the “effect on active monocytes and dendritic cells (up/downregulated genes, scRNA-seq)” value was “strongly affected”.
